Among the data in patent US7812047B2, “4-imidazolines” (Hoffman-La Roche Inc., priority 2007, dated 2010) are Ki and Kd values, retold here.

Usually Ki stands for a measure of affinity in units of concentration, obtained from inhibition or displacement. Higher therefore signals weaker binding. As usually defined, the Kd is the constant that tells how readily two partners part at equilibrium.

For the first assay, the target named is T1, TAAR1 (Mus musculus, UniProt Q923Y8).
T1 construct: expressed in transfected cells; host or cells: HEK293 cells (ATCC CRL-1573), stably transfected with pIRESneo2 expression plasmid; membranes prepared
T1 sequence (Q923Y8 whole entry): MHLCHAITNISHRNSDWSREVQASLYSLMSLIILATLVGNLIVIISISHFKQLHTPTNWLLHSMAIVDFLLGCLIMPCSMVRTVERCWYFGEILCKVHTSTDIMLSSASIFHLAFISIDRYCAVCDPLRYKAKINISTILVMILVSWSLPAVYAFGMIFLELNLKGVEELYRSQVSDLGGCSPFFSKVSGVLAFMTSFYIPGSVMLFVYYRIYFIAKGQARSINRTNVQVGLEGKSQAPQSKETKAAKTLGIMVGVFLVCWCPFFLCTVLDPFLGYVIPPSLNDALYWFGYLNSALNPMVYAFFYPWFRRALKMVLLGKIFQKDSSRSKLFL
As to the kind of experiment: Radioligand binding assay on membranes of HEK293 cells stably expressing TAAR1. As to conditions: mouse TAAR1; radioligand [3H]-rac-2-(1,2,3,4-tetrahydro-1-naphthyl)-2-imidazoline, 4° C., 30 min. As to the method: For the construction of expression plasmids the coding sequences of human, rat and mouse TAAR 1 were amplified from genomic DNA essentially as described by Lindemann et al.. The Expand High Fidelity PCR System (Roche Diagnostics) was used with 1.5 mM Mg^2+ and purified PCR products were cloned into pCR2.1-TOPO cloning vector (Invitrogen) following the instructions of the manufacturer. PCR products were subcloned into the pIRESneo2 vector (BD Clontech, Palo Alto, Calif.), and expression vectors were sequence verified before introduction in cell lines.
HEK293 cells (ATCC # C.RL-1573) were cultured essentially as described Lindemann et al. (2005). For the generation of stably transfected cell lines HEK293 cells were transfected with the pIRESneo2 expression plasmids containing the TAAR coding sequences (described above) with Lipofectamine 2000 (Invitrogen) according to the instructions of the manufacturer, and 24 hrs post transfection the culture medium was supplemented with 1 mg/ml G418 (Sigma, Buchs, Switzerland). After a culture period of about 10 d clones were isolated, expanded and tested for responsiveness to trace amines (all compounds purchased from Sigma) with the cAMP Biotrak Enzyme immunoassay (EIA) System (Amersham) following the non-acetylation EIA procedure provided by the manufacturer.
Cells at confluence were rinsed with ice-cold phosphate buffered saline without Ca^2+ and Mg^2+ containing 10 mM EDTA and pelleted by centrifugation at 1000 rpm for 5 min at 4° C. The pellet was then washed twice with ice-cold phosphate buffered saline and cell pellet was frozen immediately by immersion in liquid nitrogen and stored until use at −80° C. Cell pellet was then suspended in 20 ml HEPES-NaOH (20 mM), pH 7.4 containing 10 mM EDTA, and homogenized with a Polytron (PT 3000, Kinematica) at 10,000 rpm for 10 s. The homogenate was centrifuged at 48,000×g for 30 min at 4° C. and the pellet resuspended in 20 ml HEPES-NaOH (20 mM), pH 7.4 containing 0.1 mM EDTA (buffer A), and homogenized with a Polytron at 10,000 rpm for 10 s. The homogenate was then centrifuged at 48,000×g for 30 min at 4° C. and the pellet resuspended in 20 ml buffer A, and homogenized with a Polytron at 10,000 rpm for 10 s. Protein concentration was determined by the method of Pierce (Rockford, Ill.). The homogenate was then centrifuged at 48,000×g for 10 min at 4° C., resuspended in HEPES-NaOH (20 mM), pH 7.0 including MgCl2 (10 mM) and […] homogenized with a Polytron at 10,000 rpm for 10 s.
Binding assay was performed at 4° C. in a final volume of 1 ml, and with an incubation time of 30 min. The radioligand [^3H]-rac-2-(1,2,3,4-tetrahydro-1-naphthyl)-2-imidazoline was used at a concentration equal to the calculated Kd value of 60 nM to give a bound at around 0.1% of the total added radioligand concentration, and a specific binding which represented approximately 70-80% of the total binding. Non-specific binding was defined as the amount of [^3H]-rac-2-(1,2,3,4-tetrahydro-1-naphthyl)-2-imidazoline bound in the presence of the appropriate unlabelled ligand (10 μM). Competing ligands were tested in a wide range of concentrations […]. […] Each experiment was performed in duplicate. All incubations were terminated by rapid filtration through UniFilter-96 plates (Packard Instrument Company) and glass filter GF/C, pre-soaked for at least 2 h in polyethylenimine 0.3%, and using a Filtermate 96 Cell Harvester (Packard Instrument Company). The tubes and filters were then washed 3 times with 1 ml aliquots of cold buffer B. Filters were not dried and soaked in Ultima gold (45 μl/well, Packard Instrument Company) and bound radioactivity was counted by a TopCount Microplate Scintillation Counter (Packard Instrument Company).
For `C1=NC(Cc2cccc3ccccc23)CN1` (racemic) [Example 2, rac-4-Naphthalen-1-ylmethyl-4,5-dihydro-1H-imidazole or tautomer], the Ki amounted to 0.005 µM.
As to `C1=NC(CCc2ccccc2)CN1` (racemic) [Example 3, rac-4-Phenethyl-4,5-dihydro-1H-imidazole or tautomer], the Ki was 0.06 µM.
In turn, `CCN(CC1CN=CN1)c1ccccc1` (racemic) [Example 4, rac-(4,5-Dihydro-3H-imidazol-4-ylmethyl)-ethyl-phenyl-amine or tautomer] returned a Ki of 0.253 µM.
The compound `CCc1cccc2cccc(CC3CNC=N3)c12` (racemic) [Example 6, (RS)-4-(8-Ethyl-naphthalen-1-ylmethyl)-4,5-dihydro-1H-imidazole or tautomer] yielded a Ki of 0.078 µM.
`Clc1ccc(CCC2CNC=N2)cc1` (racemic) [Example 10, rac-4-[2-(4-Chloro-phenyl)-ethyl]-4,5-dihydro-1H-imidazole or tautomer] yielded a Ki of 0.327 µM.
Turning to `CN(CC1CN=CN1)c1ccccc1` (stereo not shown) [Example 7, (4,5-Dihydro-3H-imidazol-4-ylmethyl)-methyl-phenyl-amine or tautomer], the affinity, expressed as Ki, was 0.182 µM.

Staying with this assay, now noted: radioligand binding assay; species not stated; read-out: calculated Kd value of the radioligand.
For `c1ccc2c(c1)CCCC2C1=NCCN1` (racemic) [[^3H]-rac-2-(1,2,3,4-tetrahydro-1-naphthyl)-2-imidazoline, reference compound], the Kd is 60 nM.
